Laboratory results reported in US11878973B2, “Bicyclic compounds and their uses” (NOVARTIS AG, priority 2021, dated 2024).

Tests used:
WRN helicase = WRN helicase (Homo sapiens (Human), UniProt Q14191); assay: In vitro enzymatic activity assay on WRN helicase (DNA dependent ATPase assay, ADP-Glo); format: biochemical; details: geometric means of at least 2 determinations; read-out: WRN ATPase Activity (IC50)
Outline: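 DNA-dependent ATPase activity was measured by ADP-Glo luminescent ADP detection after a 30-min room-temperature reaction. The reaction contained 10 nM WRN (residues N517-P1238), 0.2 nM FLAP26 and 300 µM ATP at pH 7.5 with 2 mM MgCl2. Compounds were tested as 10-point half-log series in duplicate; IC50 values are geometric means from at least two independent experiments.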

SW48 cells = assay: Proliferation assay SW48 (CellTiterGlo, 96 hours); details: Homo sapiens, SW48, read-out: Proliferation Assay SW48 (GI50)
DLD1-WRN-KO cells = assay: Proliferation assay DLD1-WRN-KO (CellTiterGlo, 96 hours; off-target effects); details: Homo sapiens, read-out: Proliferation Assay DLD1-WRN-KO (GI50)
Protocol: The WRN-knockdown insensitive colon carcinoma cell line DLD-1 (RRID: CVCL_0248) was obtained from the Korean Cell Line Bank (KCLB), and used to generate a derivative in which the endogenous WRN gene copies were knocked out by CRISPR-mediated editing using standard CRISPR methods. The resulting cell line, DLD1-WRN—KO, was used to assess potential off-target compound effects.
All cells were maintained at 37° C. in a humidified 5% CO2 incubator.
For data analysis, the assay background signal that was determined in wells containing medium, but no cells, was subtracted from all other data points prior to further calculations. The extent of growth inhibition and potential cell kill was assessed by comparing the ATP levels (measured using CellTiterGlo, Promega) in compound-treated cells with those present at the time of compound addition. […] 100%, 0% and −100% signify absence of growth inhibition, growth stasis, and complete cell kill, respectively. Compound concentrations leading to half-maximal growth inhibition (G150) and residual cell viability at the highest tested compound concentration (Data (cmax), expressed in percent) were routinely calculated. Data analysis can also be carried out using commercially available software designed to derive IC50 values using 4-parameter fits (e.g. GraphPad Prism, XL fit). The reported GI50 values are the geometrical means of at least 2 independent replicates.

Chain of WRN helicase (Q14191 517-1238): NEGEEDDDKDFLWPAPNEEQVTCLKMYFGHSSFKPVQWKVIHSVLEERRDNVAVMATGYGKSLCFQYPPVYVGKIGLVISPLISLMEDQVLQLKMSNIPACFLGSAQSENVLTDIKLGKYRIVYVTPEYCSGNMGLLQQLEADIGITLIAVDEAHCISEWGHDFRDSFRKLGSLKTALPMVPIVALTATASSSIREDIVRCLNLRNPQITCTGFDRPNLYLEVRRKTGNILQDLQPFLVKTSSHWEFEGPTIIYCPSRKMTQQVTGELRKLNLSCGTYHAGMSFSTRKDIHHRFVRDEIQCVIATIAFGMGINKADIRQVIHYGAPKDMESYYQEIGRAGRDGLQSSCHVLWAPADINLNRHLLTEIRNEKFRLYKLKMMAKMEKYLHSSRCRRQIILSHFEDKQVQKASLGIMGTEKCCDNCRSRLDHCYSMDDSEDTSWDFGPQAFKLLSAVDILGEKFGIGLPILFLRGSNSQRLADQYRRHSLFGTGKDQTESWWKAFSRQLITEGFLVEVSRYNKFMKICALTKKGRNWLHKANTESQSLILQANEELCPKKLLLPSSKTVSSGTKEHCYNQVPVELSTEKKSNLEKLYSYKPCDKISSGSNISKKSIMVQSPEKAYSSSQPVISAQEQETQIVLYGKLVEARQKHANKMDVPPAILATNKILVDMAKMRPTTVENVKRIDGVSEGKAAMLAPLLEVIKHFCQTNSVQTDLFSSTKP

IC50 (WRN helicase)	GI50 (SW48 cells)	GI50 (DLD1-WRN-KO cells)	SMILES
140 nM	480 nM	> 10000 nM	CCc1c(N2CCN(C(=O)c3ncccc3O)CC2)c(=O)n2nc(N3CCCC(F)C3)nc2n1CC(=O)Nc1ccc(C(F)(F)F)cc1C (racemic) [Example 14, rac-2-(5-ethyl-2-(3-fluoropiperidin-1-yl)-6-(4-(3-hydroxypicolinoyl)piperazin-1-yl)-7-oxo-[1,2,4]triazolo[1,5-a]pyrimidin-4(7H)-yl)-N-(2-methyl-4-(trifluoromethyl)phenyl)acetamide]
40 nM	170 nM	> 10000 nM	Cc1c(N2CCN(C(=O)c3ncccc3O)[C@H](C)C2)c(=O)n2nc(C3=CCOCC3)nc2n1CC(=O)Nc1ccc(C(F)(F)F)cc1 [Example 89, (R)-2-(2-(3,6-dihydro-2H-pyran-4-yl)-6-(4-(3-hydroxypicolinoyl)-3-methylpiperazin-1-yl)-5-methyl-7-oxo-[1,2,4]triazolo[1,5-a]pyrimidin-4(7H)-yl)-N-(4-(trifluoromethyl)phenyl)acetamide]
930 nM	1780 nM	> 10000 nM	CCc1c(N2CCN(C(=O)c3nccc(Cl)c3O)CC2)c(=O)n2nc(C3=CCOCC3)nc2n1CC(=O)Nc1ccc(C(F)(F)F)nc1C [Example 36, 2-(6-(4-(4-chloro-3-hydroxypicolinoyl)piperazin-1-yl)-2-(3,6-dihydro-2H-pyran-4-yl)-5-ethyl-7-oxo-[1,2,4]triazolo[1,5-a]pyrimidin-4(7H)-yl)-N-(2-methyl-6-(trifluoromethyl)pyridin-3-yl)acetamide]
190 nM	400 nM	> 10000 nM	CCc1c(N2CCN(C(=O)c3ncccc3O)CC2)c(=O)n2nc(C3=CCOCC3)nc2n1CC(=O)Nc1ccc(C(F)(F)F)nc1C [Example 35, 2-(2-(3,6-dihydro-2H-pyran-4-yl)-5-ethyl-6-(4-(3-hydroxypicolinoyl)piperazin-1-yl)-7-oxo-[1,2,4]triazolo[1,5-a]pyrimidin-4(7H)-yl)-N-(2-methyl-6-(trifluoromethyl)pyridin-3-yl)acetamide]
30 nM	50 nM	> 10000 nM	CCc1c(N2CCN(C(=O)c3ncnc(C)c3O)CC2)c(=O)n2nc(C3=CCOCC3)nc2n1CC(=O)Nc1cc(F)c(C(F)(F)F)cc1C [Example 50, 2-(2-(3,6-dihydro-2H-pyran-4-yl)-5-ethyl-6-(4-(5-hydroxy-6-methylpyrimidine-4-carbonyl)piperazin-1-yl)-7-oxo-[1,2,4]triazolo[1,5-a]pyrimidin-4(7H)-yl)-N-(5-fluoro-2-methyl-4-(trifluoromethyl)phenyl)acetamide]
90 nM	480 nM	> 10000 nM	CCc1c(N2CCN(C(=O)c3ncncc3O)CC2)c(=O)n2nc(C3=CCOCC3)nc2n1CC(=O)Nc1ccc(C(F)(F)F)cc1C [Example 64, 2-(2-(3,6-dihydro-2H-pyran-4-yl)-5-ethyl-6-(4-(5-hydroxypyrimidine-4-carbonyl)piperazin-1-yl)-7-oxo-[1,2,4]triazolo[1,5-a]pyrimidin-4(7H)-yl)-N-(2-methyl-4-(trifluoromethyl)phenyl)acetamide]
130 nM	270 nM	> 10000 nM	CCc1c(N2CCN(C(=O)c3ncccc3O)CC2)c(=O)n2nc(C3=COCCO3)nc2n1CC(=O)Nc1ccc(C(F)(F)F)nc1Cl [Example 27, N-(2-chloro-6-(trifluoromethyl)pyridin-3-yl)-2-(2-(5,6-dihydro-1,4-dioxin-2-yl)-5-ethyl-6-(4-(3-hydroxypicolinoyl)piperazin-1-yl)-7-oxo-[1,2,4]triazolo[1,5-a]pyrimidin-4(7H)-yl)acetamide]
110 nM	80 nM	> 10000 nM	CCc1c(N2CCN(C(=O)c3ncncc3O)CC2)c(=O)n2nc(C3=CCOCC3)nc2n1CC(=O)Nc1ccc(C(F)(F)F)cc1Cl [Example 44, N-(2-chloro-4-(trifluoromethyl)phenyl)-2-(2-(3,6-dihydro-2H-pyran-4-yl)-5-ethyl-6-(4-(5-hydroxypyrimidine-4-carbonyl)piperazin-1-yl)-7-oxo-[1,2,4]triazolo[1,5-a]pyrimidin-4(7H)-yl)acetamide]
